These compounds were tested against purified Human plasma Kallikrein (Homo sapiens (Human), UniProt P03952) (assay: Kallikrein Assay). Conditions: purified Human plasma Kallikrein 0.5 nM; substrate Acetyl-K-P-R-AFC; 50 mM HEPES pH 7.4; Ki from IC50 by Cheng Prusoff.
Format: biochemical
Experimental: (§1) The effectiveness of a compound of the present invention as an inhibitor of Kallikrein can be determined using a relevant purified serine protease, and an appropriate synthetic substrate. The rate of hydrolysis of the chromogenic or fluorogenic substrate by the relevant serine protease was measured both in the absence and presence of compounds of the present invention. Assays were conducted at rt or at 37° C. […] A decrease in the rate of fluorescence change in the presence of inhibitor is indicative of enzyme inhibition. Such methods are known to one skilled in the art. The results of this assay are expressed as the inhibitory constant, Ki.
Kallikrein determinations were made in 50 mM HEPES buffer at pH 7.4 containing 150 mM NaCl, 5 mM CaCl2, and 0.1% PEG 8000 (polyethylene glycol; Fisher Scientific). Determinations were made using purified Human plasma Kallikrein at a final concentration of 0.5 nM (Enzyme Research Laboratories) and the synthetic substrate, Acetyl-K-P-R-AFC (Sigma # C6608) at a concentration of […].
Times required to achieve equilibration between enzyme and inhibitor were determined in control experiments. […] IC50 was determined by inflection point from a four parameter logistic curve fit. Ki was calculated using the Cheng Prusoff equation, Ki=IC50/(1+([S]/Km)).

Chain of purified Human plasma Kallikrein (P03952 391-638): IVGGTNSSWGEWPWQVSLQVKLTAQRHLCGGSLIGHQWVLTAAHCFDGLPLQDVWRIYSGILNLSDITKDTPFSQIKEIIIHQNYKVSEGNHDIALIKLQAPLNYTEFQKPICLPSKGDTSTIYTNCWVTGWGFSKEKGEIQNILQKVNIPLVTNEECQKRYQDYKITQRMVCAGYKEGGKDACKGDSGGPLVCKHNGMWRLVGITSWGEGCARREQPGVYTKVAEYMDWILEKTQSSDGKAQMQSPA
Chain of purified Human plasma Kallikrein (P03952 20-390 partner): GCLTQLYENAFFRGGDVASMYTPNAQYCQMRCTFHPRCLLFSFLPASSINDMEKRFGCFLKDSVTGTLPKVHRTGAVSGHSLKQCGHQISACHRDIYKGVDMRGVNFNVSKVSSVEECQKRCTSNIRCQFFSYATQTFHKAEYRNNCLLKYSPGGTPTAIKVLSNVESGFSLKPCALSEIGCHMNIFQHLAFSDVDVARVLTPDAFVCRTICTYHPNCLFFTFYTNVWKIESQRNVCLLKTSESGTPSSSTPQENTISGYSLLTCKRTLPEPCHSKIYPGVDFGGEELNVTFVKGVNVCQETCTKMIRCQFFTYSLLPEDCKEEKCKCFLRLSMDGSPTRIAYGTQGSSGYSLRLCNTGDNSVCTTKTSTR

Ki	Compound
2.02 nM	COC(=O)Nc1ccc2c(c1)NC(=O)[C@H](C)CCC[C@H](c1ccc(-c3cc(F)ccc3OC(F)(F)F)c[n+]1[O-])c1nc-2c(C)[nH]1 (single isomer, unassigned) [Example 149-a]
0.7 nM	COC(=O)Nc1ccc2c(c1)NC(=O)CCCC[C@H](c1ccc(-c3cc(Cl)ccc3-c3cnco3)c[n+]1[O-])c1cccc-2c1 (single isomer, unassigned) [Example 35]
2.03 nM	COC(=O)Nc1ccc2c(c1)NC(=O)CCCC[C@H](c1ccc(-c3c(F)cccc3OC(F)F)c[n+]1[O-])c1nc-2c(C)[nH]1 (single isomer, unassigned) [Example 126]
10.8 nM	COC(=O)Nc1ccc2c(c1)NC(=O)C(C)CCCC(c1ccc(-c3c(F)ccc(Cl)c3F)cn1)c1cc-2ccn1 (single isomer, unassigned) [Example 95-d, Methyl (9-(5-(3-chloro-2,6-difluorophenyl)pyridin-2-yl)-5-methyl-4-oxo-3-aza-1(4,2)-pyridina-2(1,2)-benzenacyclononaphane-2^4-yl)carbamate]
5.21 nM	COC(=O)Nc1ccc2c(c1)NC(=O)C(C)CCCC(c1cc(OC)c(-c3c(F)ccc(Cl)c3F)c[n+]1[O-])c1cccc-2c1 (single isomer, unassigned) [Example 88-d, 5-(3-Chloro-2,6-difluorophenyl)-4-methoxy-2-(2^4-((methoxycarbonyl)amino)-5-methyl-4-oxo-3-aza-1(1,3),2(1,2) -dibenzenacyclononaphane-9-yl)pyridine 1-oxide]
0.71 nM	CCc1[nH]c2nc1-c1ccc(NC(=O)OC)cc1NC(=O)[C@H](C)CCC[C@@H]2c1ccc(-c2c(F)cccc2OC(F)F)c[n+]1[O-] (single isomer, unassigned) [Example 146-a]
2.09 nM	COC(=O)Nc1ccc2c(c1)NC(=O)CCCC[C@H](c1ccc(-c3c(F)ccc(Cl)c3F)c[n+]1[O-])c1ccc(F)c-2c1 (single isomer, unassigned) [Example 68]

Each compound was assayed against purified human Factor XIa (Homo sapiens (Human), UniProt P03951) (assay: Factor XIa Assay). Conditions: purified human Factor XIa 40 pM; substrate Z-Gly-Pro-Arg-AFC 100 μM; 50 mM HEPES pH 7.4; read-out: Human FXIa Ki.
Chain of purified human Factor XIa (P03951 388-625): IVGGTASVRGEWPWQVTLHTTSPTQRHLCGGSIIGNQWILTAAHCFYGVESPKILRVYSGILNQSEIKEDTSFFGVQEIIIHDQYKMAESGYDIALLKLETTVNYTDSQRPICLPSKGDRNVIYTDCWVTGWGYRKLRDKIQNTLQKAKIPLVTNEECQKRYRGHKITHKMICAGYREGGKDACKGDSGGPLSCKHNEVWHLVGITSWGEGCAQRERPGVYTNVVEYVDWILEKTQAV
Chain of purified human Factor XIa (P03951 19-387 partner): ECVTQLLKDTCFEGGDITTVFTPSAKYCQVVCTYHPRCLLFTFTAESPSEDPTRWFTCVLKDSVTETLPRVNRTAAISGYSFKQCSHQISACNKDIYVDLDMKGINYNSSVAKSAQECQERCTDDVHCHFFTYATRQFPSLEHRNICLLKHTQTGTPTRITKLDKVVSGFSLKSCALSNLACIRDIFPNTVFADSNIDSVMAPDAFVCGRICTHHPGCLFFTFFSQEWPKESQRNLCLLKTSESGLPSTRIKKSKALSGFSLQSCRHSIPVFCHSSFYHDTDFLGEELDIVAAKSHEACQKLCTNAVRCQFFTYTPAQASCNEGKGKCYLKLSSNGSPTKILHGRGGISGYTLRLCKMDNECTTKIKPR
Format: biochemical
Experimental: as §1, with “Coagulation Factor XIa” for “Kallikrein”
Factor XIa determinations were made in 50 mM HEPES buffer at pH 7.4 containing 150 mM NaCl, 5 mM CaCl2, and 0.1% PEG 8000 (polyethylene glycol; JT Baker or Fisher Scientific). Determinations were made using purified human Factor XIa at a final concentration of 40 pM (Sekisui Diagnostics) and he synthetic substrate, Z-Gly-Pro-Arg-AFC, TFA salt (Sigma #C0980) at a concentration of 100 μM.
Times required to achieve equilibration between enzyme and inhibitor were determined in control experiments. Initial velocities of product formation in the absence (Vo) or presence of inhibitor (Vi) were measured. Assuming competitive inhibition, and that unity is negligible compared Km/[S], [I]/e, and [I]/e (where [S], [I], and e respectively represent the total concentrations, of substrate, inhibitor and enzyme), the equilibrium constant (Ki) for dissociation of the inhibitor from the enzyme can be obtained from the dependence of Vo/Vi on [I] shown in the following equation.

Ki	Compound
6.8 nM	COC(=O)Nc1ccc2c(c1)NC(=O)CCCCC(c1ccc(-c3c(F)ccc(Cl)c3F)c[n+]1[O-])c1cnn-2c1 (racemic) [Example 162, (Z)-5-(3-chloro-2,6-difluorophenyl)-2-(2^5-((methoxycarbonyl)amino)-4-oxo-1^1H-3-aza-1(1,4)-pyrazola-2(1,2)-benzenacyclononaphane-9-yl)pyridine 1-oxide]
0.24 nM	O=C1CCCC[C@H](c2ccc(-c3c(F)ccc(Cl)c3F)c[n+]2[O-])c2cccc(c2)-c2ccc(NC(=O)OCCO)cc2N1 [Example 46, (S)-5-(3-chloro-2,6-difluorophenyl)-2-(2^4-(((2-hydroxyethoxy)carbonyl)amino)-4-oxo-3-aza-1(1,3),2(1,2) -dinenzenacyclononaphane-9-yl)pyridine 1-oxide]
40 nM	COC(=O)Nc1ccc2c(c1)NC(=O)CCCC[C@H](c1ccc(-c3ccccc3-n3cc(C)cn3)c[n+]1[O-])c1nc-2c(C)[nH]1 (single isomer, unassigned) [Example 140]
2.54 nM	O=C1CCCCC(c2ccc(-c3c(F)ccc(Cl)c3F)c[n+]2[O-])c2nc(c[nH]2)-c2cc(C(=O)O)ccc2N1 (single isomer, unassigned) [Example 106-a, (Z)-2-(2^5-carboxy-4-oxo-1^1H-3-aza-1(4,2)-imidazola-2(1,2) -benzenacyclononaphane-9-yl)-5-(3-chloro-2,6-difluorophenyl)pyridine 1-oxide]
> 875 nM	C[C@H]1CCC[C@@H](c2ccc(-c3cc(Cl)ccc3-n3cc(Cl)nn3)c[n+]2[O-])c2cccc(c2)-c2c(cnn2C(F)F)NC1=O (single isomer, unassigned) [Example 166-d]
167 nM	COC(=O)Nc1ccc2c(c1)NC(=O)CCCCC(c1ccc(-c3c(F)ccc(Cl)c3F)cn1)c1cc-2ncc1F (centres unmarked) [Example 58, methyl (9-(5-(3-chloro-2,6-difluorophenyl)pyridin-2-yl)-1^5-fluoro-4-oxo-3-aza-1(2,4)-pyridina-2(1,2)-benzenacyclononaphane-2^4-yl)carbamate]
782 nM	COC(=O)Nc1ccc2c(c1)NC(=O)C(C)CCCC(c1ccc(-c3c(F)ccc(Cl)c3F)c[n+]1[O-])c1ccc(F)c-2c1 (single isomer, unassigned) [Example 86-b, 5-(3-Chloro-2,6-difluorophenyl)-2-(1^6-fluoro-2^4-((methoxycarbonyl)amino)-5-methyl-4-oxo-3-aza-1(1,3),2(1,2) -dibenzenacyclononaphane-9-yl)pyridine 1-oxide]
83.1 nM	O=C1CCCC[C@@H](c2ccc(-c3cc(Cl)ccc3-n3cnnn3)c[n+]2[O-])c2cccc(c2)-c2cc(F)ccc2N1 [Example 2-b, (R) 5-(5-chloro-2-(1H-tetrazol-1-yl)phenyl)-2-(2^5-fluoro-4-oxo-3-aza-1(1,3),2(1,2)-dibenzenacyclononaphane-9-yl)pyridine 1-oxide]
342 nM	COC(=O)Nc1ccc2c(c1)NC(=O)CCCCC(c1ccc(-c3c(F)ccc(Cl)c3F)cn1)c1cc-2c(F)cn1 (centres unmarked) [Example 60, methyl (9-(5-(3-chloro-2,6-difluorophenyl)pyridin-2-yl)-1^5-fluoro-4-oxo-3-aza-1(4,2)-pyridina-2(1,2)-benzenacyclononaphane-2^4-yl)carbamate]
168 nM	CCc1[nH]c2nc1-c1ccc(NC(=O)OC)cc1NC(=O)CCCC[C@@H]2c1ccc(-c2c(-n3cc(C(F)(F)F)cn3)ccc(Cl)c2F)c[n+]1[O-] (single isomer, unassigned) [Example 136]
270 nM	COC(=O)Nc1ccc2c(c1)NC(=O)C(C)CCCC(c1ccc(-c3c(F)ccc(Cl)c3F)c[n+]1[O-])c1cccc-2c1 (single isomer, unassigned) [Example 50-c, 5-(3-chloro-2,6-difluorophenyl)-2-(2^4-((methoxycarbonyl)amino)-5-methyl-4-oxo-3-aza-1(1,3),2(1,2)-dinenzenacyclononaphane-9-yl)pyridine 1-oxide]
198 nM	COC(=O)Nc1ccc2c(c1)NC(=O)CCCC[C@H](c1ccc(-c3c(-n4cc(C(F)(F)F)cn4)ccc(Cl)c3F)c[n+]1[O-])c1nc-2c(C)[nH]1 (single isomer, unassigned) [Example 135]
9.4 nM	C[C@H]1CCC[C@H](c2ccc(-c3cc(Cl)ccc3-n3cc(Cl)nn3)c[n+]2[O-])c2cccc(c2)-c2c(cnn2C(F)F)NC1=O (single isomer, unassigned) [Example 166-c]
115 nM	COC(=O)Nc1ccc2c(c1)NC(=O)C(C)CCCC(c1ccc(-c3c(F)ccc(Cl)c3F)c[n+]1[O-])c1ccc(F)c-2c1 (single isomer, unassigned) [Example 86-c, 5-(3-Chloro-2,6-difluorophenyl)-2-(1^6-fluoro-2^4-((methoxycarbonyl)amino)-5-methyl-4-oxo-3-aza-1(1,3),2(1,2) -dibenzenacyclononaphane-9-yl)pyridine 1-oxide]
> 875 nM	O=C1CCCC[C@H](c2ccc(-c3c(F)ccc(Cl)c3F)c[n+]2[O-])c2cccc(c2)-c2c(cnn2C(F)F)N1 (single isomer, unassigned) [Example 171]
> 875 nM	COC(=O)Nc1ccc2c(c1)NC(=O)CCCCC(c1ccc(-c3c(F)ccc(Cl)c3F)cn1)c1ccc(F)c-2n1 (centres unmarked) [Example 63, methyl (9-(5-(3-chloro-2,6-difluorophenyl)pyridin-2-yl)-1^3-fluoro-4-oxo-3-aza-1(2,6)-pyridina-2(1,2)-benzenacyclononaphane-2^4-yl)carbamate]

— US10214512B2, “Factor XIA inhibitors” (MERCK SHARP & DOHME CORP., priority 2015, dated 2019)
